Data published in patent US4200650A, “2-Amino-cyclopent-1-ene-1-thiocarboxylic acid-disulfides to treat noradrenergic malfunctions” (Richter Gedeon Vegyeszeti Gyar Rt., priority 1976, dated 1980).

What was measured:
dopamine-β-hydroxylase [1] = assay: Determination of the adrenaline content of adrenal gland; assay type: in vivo, male Wistar rats; conditions: ± standard error
Procedure: (§1) The dopamine-β-hydroxylase inhibiting effects of the new compounds according to the invention were examined by the following tests:
(§2) The tests were performed on male Wistar rats weighing 150 to 200 g. The dopamine-β-hydroxylase inhibiting effects of the compounds were evaluated by determining the change of noradrenaline, dopamine and adrenaline levels of the cerebrum, heart, spleen and adrenal gland. The serotonine and 5-hydroxy-indolylacetic acid levels of the cerebrum were also determined. The measurements were performed as follows:
(§3) The animals were decapitated, the cerebrum, heart, spleen and adrenal gland were removed quickly, and the organs were frozen by placing them onto a metal sheet cooled with dry ice. The frozen organs were stored for maximum one night at -20° C.
Determination of the adrenaline content of adrenal gland
The adrenal glands were freed from fat and homogenized in 3.0 ml of ice-cold 0.4 n perchloric acid. The homogenized mixtures were centrifuged for 10 minutes at 0° C. with a speed of 3200 r.p.m. using a Janetzky K-70 type centrifuge. 0.05 ml samples were taken from the supernatant, and the adrenaline level was determined directly by the method of Laverty et al. (Anal. Biochem. 22, 269/1968/).
(§4) In the tests disulfiram, 2,2-dipyridyl, bis(1-methyl-4-homopiperazinyl-thriocaronyl)-disulfide, sodium diethyldithiocarbamate and N-phenyl-N'-(2-thiazolyl)-thiourea were applied as reference substances. The values indicated in Table 1 are the percentages in relation to the amine levels of the controls measured in the same tests (± standard error). The statistical calculations were performed on a TPA/i type computer, using Student's t test.

dopamine-β-hydroxylase [2] = assay: Determination of noradrenaline and dopamine levels of brain (dopamine-β-hydroxylase inhibiting effect); assay type: in vivo, male Wistar rats; conditions: ± standard error
Procedure: as §1, §2, §3
Determination of the noradrenaline, dopamine, serotonine and 5-hydroxy-indolylacetic acid contents of brain
The brains were homogenized in 10 parts by volume of 0.4 n perchloric acid. The homogenized mixture was stored at -20° C. overnight, thereafter it was thawed and centrifuged as described above. A sample of the homogenized mixture corresponding to 0.5 g of brain was removed, the pH of the sample was adjusted to 8.0±0.1 with 0.1 molar tris-buffer of the above composition, and the sample was processed as described above for the determination of the noradrenaline content of heart and spleen, with the difference that 1.5 ml of 0.05 n perchloric acid were applied as eluting agent. 0.5 ml of the eluate were applied to determine the noradrenaline and dopamine contents. The measurement was performed as described above, with the difference that samples of 0.5 ml were applied for the recording of the fluorescency of noradrenaline. The residua was placed for 50 minutes into a drying oven heated to 100° C., thereafter the sample was cooled with ice water, and the fluorescency of dopamine was recorded at wavelengths of 325 nm (excitation) and 380 nm (emission).
In a further test series the serotonine and 5-hydroxy-indolylacetic acid contents were also determined, beside the determination of the noradrenaline and dopamine content, from the same sample. In this instance the brains were homogenized in 10 ml of 75% ethanol, 0.2 ml of EDTA-Na2 and 5% of ascorbic acid were added to the homogenized mixtures, and the homogenized mixtures were maintained at -20° C. overnight. The mixtures were centrifuged as described above, and 5.0 ml samples of the supernatant were removed. The samples were diluted with equal volumes of distilled water, and poured onto ion exchange columns of 0.5×1.5 cm dimensions, filled with buffered Amberlite CG-30 (200 to 400 mesh). The columns were washed with 5 ml of distilled water followed by 1.0 ml of 0.2 n hydrochloric acid, and the first effluent and the aqueous wash were collected for the determination of 5-hydroxy-indolylacetic acid. Elution was continued with further 1.2 ml of 0.2 n hydrochloric acid in order to remove noradrenaline, dopamine and serotonine. Samples of 0.3 ml were used for the determinations.
Noradrenaline and dopamine were determined by the method of Shellenberger, modified as described above, whereas serotonine was determined by the method of Curzon et al. (Brit. J. Pharmacol. 39, 653/1970/). The basic method was modified as follows: A 0.5% solution of ortho-phthal(di)aldehyde in absolute ethanol was diluted with 10 n hydrochloric acid to 50-fold of its original volume, and 0.6 ml of the resulting 0.01% ortho-phthal(di)aldehyde solution were added immediately to 0.5 ml of the serotonine-containing sample. The sample was placed into a hot water bath for 10 minutes, thereafter cooled with tap water, and the fluorescency was recorded at wavelengths of 360 nm (excitation) and 490 nm (emission).
In the tests disulfiram, 2,2-dipyridyl, bis(1-methyl-4-homopiperazinyl-thriocaronyl)-disulfide, sodium diethyldithiocarbamate and N-phenyl-N'-(2-thiazolyl)-thiourea were applied as reference substances. […]

dopamine-β-hydroxylase [3] = assay: Determination of the noradrenaline content of spleen; assay type: in vivo, male Wistar rats
Procedure: as §1, §2, §3
(§5) Determination of the noradrenaline content of heart and spleen
(§6) The organs were weighed in frozen state and then homogenized in 5.0 ml of 0.4 n perchloric acid containing 0.05% of EDTA-Naa and 0.1% of Na2 S2 O5. The homogenized mixtures were centrifuged as described above for the treatment of adrenal gland, the supernatants were decanted, and the pH was adjusted to 8.0±0.1 with a 0.1 molar tris buffer containing 20 g/l of NaOH and 25 g/l of EDTA-Na2. 100 mg of prepared Al2 O3 (Anton et al.: J. Pharm. Ther. 138, 360/1962/) were added to the samples, and the mixtures were shaken mechanically for 20 minutes. Thereafter Al2 O3 was washed with 2×10 ml of distilled water, and noradrenaline was eluted with 1.0 ml of 0.05 n perchloric acid. 0.5 ml samples of the eluate were applied for the determination of noradrenaline. Noradrenaline was determined according to the method of Shellenberger et al. (Anal. Biochem. 39, 356/1971/), with the following modifications of the basic procedure: 0.5 ml of 0.1 molar Na-K-phosphate buffer, containing 9 g/l of EDTA-Na2, were added to 0.5 ml of the eluate, and the catecholamines (noradrenaline in the examination of heart and spleen and noradrenaline and dopamine in the examination of the cerebrum) were oxidized with 0.1 ml of a 0.1 n iodine solution in 5% potassium iodide. After exactly 2 minutes oxidation was stopped by adding 0.25 ml of a 2.5% sodium sulfite solution in 4.4 n aqueous sodium hydroxide to the mixture. 2 minutes after the introduction of the alkaline sulfite solution 0.2 ml of concentrated acetic acid were added to the samples, upon which the pH decreased to 4.4 to 4.5 Thereafter the samples were placed for 5 minutes into a drying oven heated to 100° C., and then the samples were cooled with ice water. The fluorescency of noradrenaline was measured with an OPTON spectrophotometer at wavelengths of 380 nm (excitation) and 490 nm (emission).
as §4

dopamine-β-hydroxylase [4] = assay: Determination of the noradrenaline content of heart; assay type: in vivo, male Wistar rats; conditions: ± standard error
Procedure: as §1, §2, §3, §5, §6, §4

dopamine-β-hydroxylase [5] = conditions: literature, cited from earlier work
[6] = i.p., 200 mg/kg, 4 hours, ± standard error
[7] = i.p., 200 mg/kg, 8 hours, ± standard error

CCNC1=C(C(=S)SSC(=S)C2=C(NCC)CCC2)CCC1 [Compound M-6, 2-(N-ethyl)-amino-cyclopent-1-ene-thiocarboxylic acid-disulfide]
Adrenal gland AD (adrenaline) level, percentages in relation to the controls (dopamine-β-hydroxylase [1]; i.p., 100 mg/kg, 4 hours): 123.4±4.6% | Adrenal gland AD (adrenaline) level, percentages in relation to the controls (dopamine-β-hydroxylase [1]; i.p., 200 mg/kg, 4 hours): 97.3±4.1% | Adrenal gland AD (adrenaline) level, percentages in relation to the controls (dopamine-β-hydroxylase [1]; i.p., 200 mg/kg, 8 hours): 79.0±3.9% | Adrenal gland AD (adrenaline) level, percentages in relation to the controls (dopamine-β-hydroxylase [1]; p.o., 500 mg/kg, 4 hours): 121.4±13.7% | Adrenal gland AD (adrenaline) level, percentages in relation to the controls (dopamine-β-hydroxylase [1]; p.o., 500 mg/kg, 8 hours): 107.5±8.9% | Brain DA (dopamine) level, percentages in relation to the controls (dopamine-β-hydroxylase [2]; i.p., 100 mg/kg, 4 hours): 99.0±5.22% | Brain NA (noradrenaline) level, percentages in relation to the controls (dopamine-β-hydroxylase [2]; i.p., 100 mg/kg, 4 hours): 41.8±2.3% | Brain DA (dopamine) level, percentages in relation to the controls (dopamine-β-hydroxylase [2]; i.p., 200 mg/kg, 4 hours): 134.9±5.4% | Brain NA (noradrenaline) level, percentages in relation to the controls (dopamine-β-hydroxylase [2]; i.p., 200 mg/kg, 4 hours): 34.4±2.6% | Brain DA (dopamine) level, percentages in relation to the controls (dopamine-β-hydroxylase [2]; i.p., 200 mg/kg, 8 hours): 121.7±6.1% | Brain NA (noradrenaline) level, percentages in relation to the controls (dopamine-β-hydroxylase [2]; i.p., 200 mg/kg, 8 hours): 34.2±3.5% | Brain DA (dopamine) level, percentages in relation to the controls (dopamine-β-hydroxylase [2]; p.o., 500 mg/kg, 4 hours): 106.7±3.4% | Brain NA (noradrenaline) level, percentages in relation to the controls (dopamine-β-hydroxylase [2]; p.o., 500 mg/kg, 4 hours): 83.9±4.8% | Brain DA (dopamine) level, percentages in relation to the controls (dopamine-β-hydroxylase [2]; p.o., 500 mg/kg, 8 hours): 92.6±4.0% | Brain NA (noradrenaline) level, percentages in relation to the controls (dopamine-β-hydroxylase [2]; p.o., 500 mg/kg, 8 hours): 73.7±4.7% | Spleen NA (noradrenaline) level, percentages in relation to the controls (dopamine-β-hydroxylase [3]; i.p., 100 mg/kg, 4 hours, ± standard error): 64.1±7.6% | Spleen NA (noradrenaline) level, percentages in relation to the controls (dopamine-β-hydroxylase [3]; [6]): 85.0±10.8% | Spleen NA (noradrenaline) level, percentages in relation to the controls (dopamine-β-hydroxylase [3]; [7]): 86.5±23.5% | Spleen NA (noradrenaline) level, percentages in relation to the controls (dopamine-β-hydroxylase [3]; p.o., 500 mg/kg, 4 hours, ± standard error): 125.4±12.4% | Spleen NA (noradrenaline) level, percentages in relation to the controls (dopamine-β-hydroxylase [3]; p.o., 500 mg/kg, 8 hours, ± standard error): 64.6±12.4% | Heart NA (noradrenaline) level, percentages in relation to the controls (dopamine-β-hydroxylase [4]; i.p., 100 mg/kg, 4 hours): 92.9±3.3% | Heart NA (noradrenaline) level, percentages in relation to the controls (dopamine-β-hydroxylase [4]; i.p., 200 mg/kg, 4 hours): 97.8±8.8% | Heart NA (noradrenaline) level, percentages in relation to the controls (dopamine-β-hydroxylase [4]; i.p., 200 mg/kg, 8 hours): 81.3±5.7% | Heart NA (noradrenaline) level, percentages in relation to the controls (dopamine-β-hydroxylase [4]; p.o., 500 mg/kg, 4 hours): 82.4±8.2% | Heart NA (noradrenaline) level, percentages in relation to the controls (dopamine-β-hydroxylase [4]; p.o., 500 mg/kg, 8 hours): 97.5±5.6%

C=CCNC1=C(C(=S)SSC(=S)C2=C(NCC=C)CCC2)CCC1 [Compound M-7, 2-(N-allyl)-amino-cyclopent-1-ene-thiocarboxylic acid-disulfide]
Adrenal gland AD (adrenaline) level, percentages in relation to the controls (dopamine-β-hydroxylase [1]; i.p., 200 mg/kg, 4 hours): 93.3±8.0% | Adrenal gland AD (adrenaline) level, percentages in relation to the controls (dopamine-β-hydroxylase [1]; i.p., 200 mg/kg, 8 hours): 69.8±6.8% | Brain DA (dopamine) level, percentages in relation to the controls (dopamine-β-hydroxylase [2]; i.p., 200 mg/kg, 4 hours): 123.6±8.1% | Brain NA (noradrenaline) level, percentages in relation to the controls (dopamine-β-hydroxylase [2]; i.p., 200 mg/kg, 4 hours): 50.5±5.2% | Brain DA (dopamine) level, percentages in relation to the controls (dopamine-β-hydroxylase [2]; i.p., 200 mg/kg, 8 hours): 104.7±5.7% | Brain NA (noradrenaline) level, percentages in relation to the controls (dopamine-β-hydroxylase [2]; i.p., 200 mg/kg, 8 hours): 64.5±4.4% | Spleen NA (noradrenaline) level, percentages in relation to the controls (dopamine-β-hydroxylase [3]; [6]): 66.1±18.1% | Spleen NA (noradrenaline) level, percentages in relation to the controls (dopamine-β-hydroxylase [3]; [7]): 88.5±33.9% | Heart NA (noradrenaline) level, percentages in relation to the controls (dopamine-β-hydroxylase [4]; i.p., 200 mg/kg, 4 hours): 100.0±3.9% | Heart NA (noradrenaline) level, percentages in relation to the controls (dopamine-β-hydroxylase [4]; i.p., 200 mg/kg, 8 hours): 91.8±3.7%

CN1CCCN(C(=S)SSC(=S)N2CCCN(C)CC2)CC1 [FLA-63, bis(1-methyl-4-homopiperazinyl)-thiocarbonyl-disulfide, reference compound]
Adrenal gland AD (adrenaline) level, percentages in relation to the controls (dopamine-β-hydroxylase [1]; i.p., 50 mg/kg, 4 hours): 43% | Brain DA (dopamine) level, percentages in relation to the controls (dopamine-β-hydroxylase [2]; i.p., 50 mg/kg, 4 hours): 118% | Brain NA (noradrenaline) level, percentages in relation to the controls (dopamine-β-hydroxylase [2]; i.p., 50 mg/kg, 4 hours): 24.6% | dopamine-β-hydroxylase inhibition under in vivo conditions, in words (dopamine-β-hydroxylase [5]; in vivo): one of the most potent dopamine-β-hydroxylase inhibitors under in vivo conditions | Spleen NA (noradrenaline) level, percentages in relation to the controls (dopamine-β-hydroxylase [3]; i.p., 50 mg/kg, 4 hours): 58% | Heart NA (noradrenaline) level, percentages in relation to the controls (dopamine-β-hydroxylase [4]; i.p., 50 mg/kg, 4 hours): 96%

CCCCc1ccc(C(=O)O)nc1 [Fusaric acid, 5-butyl-picolinic acid]
dopamine-β-hydroxylase inhibiting effects, in words (dopamine-β-hydroxylase [5]): strong dopamine-β-hydroxylase inhibiting effects

NNc1nncc2ccccc12 [Hydralazine]
dopamine-β-hydroxylase inhibiting effects, in words (dopamine-β-hydroxylase [5]): possess dopamine-β-hydroxylase inhibiting effects

O=C(CO)c1coc(=O)c2c(O)cccc12 [Oosponol]
dopamine-β-hydroxylase inhibiting effects, in words (dopamine-β-hydroxylase [5]): strong dopamine-β-hydroxylase inhibiting effects

CC(N)Cc1ccccc1 (stereo not drawn) [amphetamine]
dopamine-β-hydroxylase inhibiting effects, in words (dopamine-β-hydroxylase [5]): possess dopamine-β-hydroxylase inhibiting effects

NNCc1ccccc1 [benzylhydrazine]
dopamine-β-hydroxylase inhibiting effects, in words (dopamine-β-hydroxylase [5]): exert dopamine-β-hydroxylase inhibiting effects | duration of activity, in words (dopamine-β-hydroxylase [5]): exert their activities for a short period

NOCc1ccccc1 [benzyloxyamine]
dopamine-β-hydroxylase inhibiting effects, in words (dopamine-β-hydroxylase [5]): exert dopamine-β-hydroxylase inhibiting effects | duration of activity, in words (dopamine-β-hydroxylase [5]): exert their activities for a short period

CCN(CC)C(=S)S [diethyl dithiocarbamate]
dopamine-β-hydroxylase inhibiting effects, in words (dopamine-β-hydroxylase [5]): strong dopamine-β-hydroxylase inhibiting effects

Cn1cc[nH]c1=S [methimazol]
dopamine-β-hydroxylase inhibiting effects, in words (dopamine-β-hydroxylase [5]): possess dopamine-β-hydroxylase inhibiting effects
